{"source": "patent US20250230193A1", "about": "“CYCLIC COMPOUND HAVING SELECTIVE KRAS INHIBITORY EFFECT ON HRAS AND NRAS” (CHUGAI SEIYAKU KABUSHIKI KAISHA, priority 2022, published 2025)", "key": {"[1]": {"target": "GDP-bound HRAS wild-type protein (Homo sapiens, UniProt P01112)", "sequence (P01112 whole entry)": "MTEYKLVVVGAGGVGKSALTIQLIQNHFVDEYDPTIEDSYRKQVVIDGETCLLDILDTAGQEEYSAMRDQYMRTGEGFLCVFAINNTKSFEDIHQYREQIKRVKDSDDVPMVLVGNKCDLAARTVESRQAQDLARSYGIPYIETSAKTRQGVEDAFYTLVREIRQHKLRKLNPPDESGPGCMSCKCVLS", "test": "Binding to HRAS by surface plasmon resonance (SPR), Single Cycle Kinetics", "conditions": "for HRAS/KRAS (ratio of KD value with respect to HRAS to KD value with respect to KRAS) / HRAS/KRAS (ratio of KD value for HRAS to KD value for KRAS): GDP-bound HRAS wild-type vs GDP-bound KRAS wild-type; for HRAS/KRAS (ratio of KD value with respect to GDP-bound HRAS wild-type protein to KD value with respect to KRAS): class symbols"}, "[2]": {"target": "GDP-bound NRAS wild-type protein (Homo sapiens, UniProt P01111)", "sequence (P01111 whole entry)": "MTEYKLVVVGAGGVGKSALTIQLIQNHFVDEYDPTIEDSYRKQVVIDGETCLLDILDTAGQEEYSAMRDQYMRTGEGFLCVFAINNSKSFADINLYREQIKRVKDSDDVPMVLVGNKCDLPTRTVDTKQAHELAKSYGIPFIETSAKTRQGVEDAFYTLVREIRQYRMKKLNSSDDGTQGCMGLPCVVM", "test": "Binding to NRAS by surface plasmon resonance (SPR), Single Cycle Kinetics", "conditions": "for NRAS/KRAS (ratio of KD value with respect to NRAS to KD value with respect to KRAS) / NRAS/KRAS (ratio of KD value for NRAS to KD value for KRAS): GDP-bound NRAS wild-type vs GDP-bound KRAS wild-type; for NRAS/KRAS (ratio of KD value with respect to GDP-bound NRAS wild-type protein to KD value with respect to KRAS): class symbols"}}, "note": "*1 amine or outer side, *2 acyl side, *3 side chain or, on linkers, in order; H or OH if unused. Where a SMILES comes first, the peptide text is derived from it. Bridges are numbered along the chain shown (N, C = ends). [ ]: non-standard residue; d: D form. The star is where a group is joined. hPhe(3-Cl-4-CF3) = N[C@@H](CCc1ccc(C(F)(F)F)c(Cl)c1)C(=O)O; X49 = Cc1ccc(C[C@@H](C(=O)[*:2])N(CC2CC2)[*:1])cc1; NMeGly(cPent) = CN[C@H](C(=O)O)C1CCCC1; NMeD = CN[C@@H](CC(=O)O)C(=O)O; NMeL = CN[C@@H](CC(C)C)C(=O)O; Morpholide = C1CN(*)CCO1; Ac5c = NC1(C(=O)O)CCCC1; Sar = CNCC(=O)O", "data": [{"compound": "CCC[C@H]1C(=O)N[C@@H]([C@@H](C)CC)C(=O)N(C)CC(=O)N(C)[C@H]2C/C=C\\CCN(C2=O)[C@@H](Cc2ccc(C)cc2)C(=O)N(C)CC(=O)N[C@@H](CCc2ccc(C(F)(F)F)c(Cl)c2)C(=O)N2C[C@H](CC)C[C@H]2C(=O)NC2(CCC2)C(=O)N(C)[C@@H](C2CCCC2)C(=O)N(C)[C@H](C(=O)N(C)C)CC(=O)N1C", "note": "[PP2237]", "values": [{"measurement": "HRAS/KRAS (ratio of KD value with respect to HRAS to KD value with respect to KRAS)", "setting": "[1]; SPR", "result": "A (a compound having 10 or more and less than 20 is denoted as A)"}, {"measurement": "NRAS/KRAS (ratio of KD value with respect to NRAS to KD value with respect to KRAS)", "setting": "[2]; SPR", "result": "A (a compound having 10 or more and less than 20 is denoted as A)"}]}, {"compound": "CC[C@H](C)[C@@H]1NC(=O)[C@H](CC(C)C)N(C)C(=O)C[C@@H](C(=O)N2CCOCC2)N(C)C(=O)[C@H](C2CCCC2)N(C)C(=O)C2(CCC2)NC(=O)[C@@H]2C[C@@H](OC)CN2C(=O)[C@H](CCc2cc(F)c(C(F)(F)F)c(F)c2)NC(=O)CN(C)C(=O)[C@H](Cc2ccc(C(F)(F)F)cc2)N2CCCC[C@@H](C2=O)N(C)C(=O)CN(C)C1=O", "note": "[PP1003]", "values": [{"measurement": "HRAS/KRAS (ratio of KD value with respect to HRAS to KD value with respect to KRAS)", "setting": "[1]; KD ratio, SPR", "result": "B (a compound having 3 or more and less than 10 is denoted as B)"}, {"measurement": "NRAS/KRAS (ratio of KD value with respect to NRAS to KD value with respect to KRAS)", "setting": "[2]; KD ratio, SPR", "result": "C (A compound having a KD ratio of 0.1 or more and less than 3 is denoted as C)"}]}, {"compound": "CCC[C@H]1C(=O)N[C@@H](CC(C)C)C(=O)N(CCOC)CC(=O)N(C)[C@H]2C/C=C\\CCN(C2=O)[C@@H](Cc2ccc(C)cc2)C(=O)N(C)CC(=O)N[C@@H](CCc2ccc(C(F)(F)F)c(OC)c2)C(=O)N2C[C@H](OCC)C[C@H]2C(=O)NC2(CCC2)C(=O)N(C)[C@@H](C2CCCC2)C(=O)N(C)[C@H](C(=O)N(C)C)CC(=O)N1C", "note": "[PP2542]", "values": [{"measurement": "HRAS/KRAS (ratio of KD value with respect to GDP-bound HRAS wild-type protein to KD value with respect to KRAS)", "setting": "[1]; KD ratio HRAS/KRAS", "result": "B (a compound having 3 or more and less than 10 is denoted as B)"}, {"measurement": "NRAS/KRAS (ratio of KD value with respect to GDP-bound NRAS wild-type protein to KD value with respect to KRAS)", "setting": "[2]; KD ratio NRAS/KRAS", "result": "B (a compound having 3 or more and less than 10 is denoted as B)"}]}, {"compound": "CCCN(C)C(=O)[C@@H]1CC(=O)N(C)[C@@H](C(C)C)C(=O)N[C@@H]([C@@H](C)CC)C(=O)N(C)CC(=O)N(C)[C@H]2C/C=C\\CCN(C2=O)[C@@H](Cc2ccc(C(F)(F)F)cc2)C(=O)N(C)CC(=O)N[C@@H](CCc2ccc(C(F)(F)F)c(OC)c2)C(=O)N2C[C@H](OCC)C[C@H]2C(=O)NC2(CCC2)C(=O)N(C)[C@@H](C2CCCC2)C(=O)N1C", "note": "[PP2020]", "values": [{"measurement": "HRAS/KRAS (ratio of KD value for HRAS to KD value for KRAS)", "setting": "[1]; KD ratio, SPR", "result": "A (a compound having 10 or more and less than 20 is denoted as A)"}, {"measurement": "NRAS/KRAS (ratio of KD value for NRAS to KD value for KRAS)", "setting": "[2]; KD ratio, SPR", "result": "A (a compound having 10 or more and less than 20 is denoted as A)"}]}, {"compound": "CCC(CC)[C@H]1C(=O)N(C)[C@H](C(=O)N2CCCCC2)CC(=O)N(C)[C@@H](COC)C(=O)N[C@@H]([C@@H](C)CC)C(=O)N(C)CC(=O)N(C)[C@H]2C/C=C\\CCN(C2=O)[C@@H](Cc2ccc(C(F)(F)F)cc2)C(=O)N(C)CC(=O)N[C@@H](CCc2cc(F)c(C(F)(F)F)c(F)c2)C(=O)N2C[C@H](OC(C)C)C[C@H]2C(=O)NC2(CC(C)(C)C2)C(=O)N1C", "note": "[PP2608]", "values": [{"measurement": "HRAS/KRAS (ratio of KD value with respect to GDP-bound HRAS wild-type protein to KD value with respect to KRAS)", "setting": "[1]; KD ratio HRAS/KRAS", "result": "A (a compound having 10 or more and less than 20 is denoted as A)"}, {"measurement": "NRAS/KRAS (ratio of KD value with respect to GDP-bound NRAS wild-type protein to KD value with respect to KRAS)", "setting": "[2]; KD ratio NRAS/KRAS", "result": "AA (a compound having 20 or more is denoted as AA)"}]}, {"compound": "CC[C@H](C)[C@@H]1NC(=O)[C@H](CC(C)C)N(C)C(=O)C[C@@H](C(=O)N2CCOCC2)N(C)C(=O)[C@H](C2CCCC2)N(C)C(=O)C2(CCCC2)NC(=O)[C@@H]2CCCN2C(=O)[C@H](CCc2ccc(C(F)(F)F)c(Cl)c2)NC(=O)CN(C)C(=O)[C@H](Cc2ccc(C)cc2)N(CC2CC2)C(=O)CN(C)C(=O)CN(C)C1=O", "note": "[PP0064] ([NMeL]I[Sar][Sar][X49][Sar][hPhe(3-Cl-4-CF3)]P[Ac5c][NMeGly(cPent)][NMeD]-Morpholide; lactam N-11)", "values": [{"measurement": "HRAS/KRAS (ratio of KD for GDP-bound HRAS wild-type to KD for KRAS)", "setting": "[1]; KD ratio HRAS/KRAS, SPR", "result": "C (A compound having a KD ratio of 0.1 or more and less than 3 is denoted as C)"}, {"measurement": "NRAS/KRAS (ratio of KD for GDP-bound NRAS wild-type to KD for KRAS)", "setting": "[2]; KD ratio NRAS/KRAS, SPR", "result": "C (A compound having a KD ratio of 0.1 or more and less than 3 is denoted as C)"}]}, {"compound": "CC[C@H](C)[C@@H]1NC(=O)[C@H](CC2CC2)N(C)C(=O)C[C@@H](C(=O)N(C)CC)N(C)C(=O)[C@H](C2CCCC2)N(C)C(=O)C2(CCC2)NC(=O)[C@@H]2CC(F)(F)CN2C(=O)[C@H](CCc2cc(F)c(C(F)(F)F)c(F)c2)NC(=O)CN(C)C(=O)[C@H](Cc2ccc(C(F)(F)F)cc2)N2CC/C=C\\C[C@@H](C2=O)N(C)C(=O)CN(C)C1=O", "note": "[PP1538]", "values": [{"measurement": "HRAS/KRAS (ratio of KD value for GDP-bound HRAS wild-type protein to KD value for KRAS)", "setting": "[1]; SPR, KD ratio class", "result": "B (a compound having 3 or more and less than 10 is denoted as B)"}, {"measurement": "NRAS/KRAS (ratio of KD value for GDP-bound NRAS wild-type protein to KD value for KRAS)", "setting": "[2]; SPR, KD ratio class", "result": "A (a compound having 10 or more and less than 20 is denoted as A)"}]}, {"compound": "CCO[C@@H]1C[C@H]2C(=O)NC3(CC(C)(C)C3)C(=O)N(C)[C@@H](C3CCCC3)C(=O)N(C)[C@H](C(=O)N(C)C)CC(=O)N(C)[C@@H](C3CCC3)C(=O)N[C@@H]([C@@H](C)CC)C(=O)N(C)CC(=O)N(C)[C@H]3C/C=C\\CCN(C3=O)[C@@H](Cc3ccc(C(F)(F)F)cc3)C(=O)N(C)CC(=O)N[C@@H](CCc3ccc(C(F)(F)F)c(OC)c3)C(=O)N2C1", "note": "[PP1987]", "values": [{"measurement": "HRAS/KRAS (ratio of KD value for HRAS to KD value for KRAS)", "setting": "[1]; KD ratio, SPR", "result": "A (a compound having 10 or more and less than 20 is denoted as A)"}, {"measurement": "NRAS/KRAS (ratio of KD value for NRAS to KD value for KRAS)", "setting": "[2]; KD ratio, SPR", "result": "A (a compound having 10 or more and less than 20 is denoted as A)"}]}]}
